# Source: patent US9309235B2, “SGC stimulators” (IRONWOOD PHARMACEUTICALS, INC., priority 2012, dated 2016)
# How the values were obtained:
# [1] = biological target: T1, soluble guanylate cyclase (sGC) (Homo sapiens, UniProt Q02108+Q02153); experiment: sGC-HEK-cGMP assay (run with SNP incubation); assay type: cell-based; details: for EC50: full concentration-response curve, with SNP incubation, read-out: HEK assay EC50-unconstrained; for EC50 / Emax: top not fitted to 100%; for Emax: maximum activity from full concentration-response curve, relative to positive control BAY 41-2272, read-out: HEK assay Emax-unconstrained (Percent); for Emax at 1 µM: test compound 1 μM, read-out: HEK assay (Percent Emax at 1 μM); for Emax at 1 µM / Emax at 10 µM / Emax at 30 µM: 10 μM SNP, Emax = 100% is BAY 41-2272 at 10 μM in the presence of 100 μM SNP; for Emax at 10 µM: test compound 10 μM, read-out: HEK assay (Percent Emax at 10 μM); for Emax at 30 µM: test compound 30 μM, read-out: HEK assay (Percent Emax at 30 μM)
# T1 construct: endogenously expressing soluble guanylate cyclase (sGC); endogenous in cells; host or cells: HEK293
# T1 sequence (Q02153 1-619): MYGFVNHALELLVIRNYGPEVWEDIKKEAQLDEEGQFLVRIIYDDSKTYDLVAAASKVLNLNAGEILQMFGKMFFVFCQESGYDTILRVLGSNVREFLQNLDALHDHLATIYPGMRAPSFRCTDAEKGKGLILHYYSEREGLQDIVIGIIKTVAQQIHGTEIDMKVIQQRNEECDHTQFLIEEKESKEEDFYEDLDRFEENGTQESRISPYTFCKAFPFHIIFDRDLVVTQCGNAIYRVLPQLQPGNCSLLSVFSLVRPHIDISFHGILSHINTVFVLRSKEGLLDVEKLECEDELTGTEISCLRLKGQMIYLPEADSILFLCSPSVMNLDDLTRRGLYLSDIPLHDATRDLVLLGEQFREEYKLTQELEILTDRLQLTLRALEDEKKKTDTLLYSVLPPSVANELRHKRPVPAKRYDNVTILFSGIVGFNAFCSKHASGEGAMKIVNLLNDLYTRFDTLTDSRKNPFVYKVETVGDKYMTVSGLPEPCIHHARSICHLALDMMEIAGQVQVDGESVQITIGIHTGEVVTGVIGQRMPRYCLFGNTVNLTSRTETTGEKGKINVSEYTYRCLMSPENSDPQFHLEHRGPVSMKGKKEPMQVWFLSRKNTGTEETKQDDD
# T1 sequence (Q02108 1-690): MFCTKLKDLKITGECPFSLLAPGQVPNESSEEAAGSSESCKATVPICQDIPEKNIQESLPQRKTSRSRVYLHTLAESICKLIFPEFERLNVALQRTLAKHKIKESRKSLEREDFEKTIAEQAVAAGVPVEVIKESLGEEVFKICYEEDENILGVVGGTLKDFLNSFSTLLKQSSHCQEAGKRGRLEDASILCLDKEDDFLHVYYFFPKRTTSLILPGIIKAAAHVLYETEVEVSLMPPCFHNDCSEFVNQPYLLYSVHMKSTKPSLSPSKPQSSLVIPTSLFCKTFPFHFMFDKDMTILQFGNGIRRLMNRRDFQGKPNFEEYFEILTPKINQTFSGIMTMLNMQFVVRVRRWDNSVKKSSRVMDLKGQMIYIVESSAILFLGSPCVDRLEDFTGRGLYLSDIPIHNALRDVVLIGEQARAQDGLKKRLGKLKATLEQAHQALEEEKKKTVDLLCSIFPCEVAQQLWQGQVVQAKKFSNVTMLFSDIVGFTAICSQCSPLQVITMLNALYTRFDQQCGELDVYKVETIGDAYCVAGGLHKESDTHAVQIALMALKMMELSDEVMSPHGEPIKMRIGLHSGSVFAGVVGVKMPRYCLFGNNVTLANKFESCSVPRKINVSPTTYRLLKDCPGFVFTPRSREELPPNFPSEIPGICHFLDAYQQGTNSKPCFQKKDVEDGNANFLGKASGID
# Procedure: (Assay Run with SNP Incubation)
# Human embryonic kidney cells (HEK293), endogenously expressing soluble guanylate cyclase (sGC), were used to evaluate the activity of test compounds. Compounds stimulating the sGC receptor should cause an increase in the intracellular concentration of cGMP. HEK 293 cells were seeded in Dulbecco's Modification of Eagle's Medium supplemented with fetal bovine serum (10% final) and L-glutamine (2 mM final) in a 200 μL volume at a density of 1×10^5 cells/well in a poly-D-lysine coated 96 well flat bottom plate and grown overnight at 37° C. Medium was aspirated and cells were washed with 1× Hank's Buffered Saline Salt Solution (200 μL). Cells were then incubated for 15 minutes at 37° C. with 200 μL of a 0.5 mM 3-isobutyl-1-methylxanthine (IBMX) solution. Test article and sodium nitroprusside solutions (x μM concentration for test article solution and 10 μM concentration for SNP solution; wherein x is one of the following concentrations);
# were then added to the assay mixture (2 μL each) and the resulting mixture incubated at 37° C. for 10 minutes. After the 10 minute incubation, the assay mixture was aspirated and 0.1M HCl (200 μL) was added to the cells. The plate was incubated at 4° C. for 30 minutes in the 0.1M HCl to stop the reaction and lyse the cells. The plates were then centrifuged at 1,200 g for 5 minutes at room temperature. Supernatants were collected and transferred to a new flat bottom 96 well plate for analysis by HPLC-MS. Vehicle controls were carried out using DMSO (1%) solutions. A known sGC stimulator, BAY 41-2272, was used as the positive control. Samples were diluted with an equal volume of 1 M Ammonium Acetate (pH 7) to neutralize samples for better chromatography. A 2× cGMP standard solution was prepared in 0.1 M HCl and then diluted with an equal volume of 1 M Ammonium Acetate, with the following final concentrations in nM: 1024, 512, 256, 128, 64, 32, 16, 8, 4, 2, 1. cGMP concentrations in the test plates were determined from each sample using the LC/MS conditions shown in Table 2 below and the calculated cGMP standard curve. EC50 values were calculated from concentration-response curves generated with GraphPad Prism Software.
# The biological activities of some of the compounds of Formula I determined with the sGC—HEK assay with SNP incubation are summarized in Tables 3A and 3B.
# [2] = biological target: T2, Human soluble guanylate cyclase enzyme (hsGC) (Homo sapiens, UniProt Q02108+Q02153); experiment: Purified human sGC enzyme synergy assay in the presence of sodium nitroprusside (SNP); assay type: biochemical; details: 30 μM compound in the presence of 1 μM SNP; fold increase over DMSO controls
# T2 construct: purchased Enzo Inc. ALX-201-177
# T2 sequence (Q02153 1-619): T1 sequence (Q02153 1-619)
# T2 sequence (Q02108 1-690): T1 sequence (Q02108 1-690)
# Procedure: Human soluble guanylate cyclase enzyme (hsGC) obtained from Enzo Inc. (P/N: ALX-201-177) was used to evaluate the activity of test compounds. The assay reactions contained 0.1 M Tris (pH 8.0), 0.5 mg/mL BSA (pH 8.0), 2 mM DTT, 2 mM MgCl2, 300 μM GTP, 1 mM 3-isobutyl-1-methylxanthine (IBMX) and 5 ng human soluble guanylate cyclase enzyme. Test compounds in DMSO were then added (2 μL, 10 or 30 μM final concentration) and incubated (water, 200 μL, 96-well plate format) at 37° C. for 30 minutes. The controls were carried out using 2 μL DMSO. After the 30 minute incubation, the reaction was stopped with the addition of 200 μL of cold methanol. The plate was then centrifuged at 3,200 rpm for 10 minutes at room temperature. Supernatants (200 μL) were collected and transferred to a new 96 well plate for analysis by HPLC LC/MS/MS.
# An 8 point cGMP (Sigma-Aldrich P/N: G6129) standard curve was prepared in assay buffer ranging from 0.156-20 μM. Samples for the cGMP standard curve were then diluted with an equal volume of methanol resulting in final cGMP concentrations of 0.078-10 μM.
# The cGMP standard curve was generated using GraphPad Prism Software.
# Calculations: Specific Activity was determined by the amount of cGMP formed (nmoles) per mg of sGC per min. Enzyme “fold-change” was calculated by dividing Specific Activity for test compounds by Specific Activity of DMSO controls. […]
# [3] = system: Guinea pig tracheal smooth muscle; experiment: Electrical field stimulated guinea pig tracheal smooth muscle contraction (ex vivo); details: pooled from three experiments; 95% CI 0.78-0.94; read-out: IC50, inhibition of EFS-induced tracheal smooth muscle contraction
# From the text: Animals: Guinea pig, Dunkin Hartley, male, Full barrier-bred and certified free of specific micro-organisms on receipt 525-609 g on the experimental day, Harlan UK Ltd. Guinea pigs were housed in a group of 4 in solid-bottomed cages with Gold Flake bedding in a controlled environment (airflow, temperature and humidity). Food (FD1, Special Diet Services) and water were provided ad libitum.
# On each experimental day, a guinea pig was killed by exposure to a rising concentration of CO2 and the trachea removed. The trachea was cleaned of extraneous tissue and cut open longitudinally in a line opposite the muscle, opened out and cut into strips 2-3 cartilage rings wide. […] Tissues were washed with Kreb's buffer and stimulated using the previously determined sub-maximal voltage for 1 hour to establish a stable baseline contraction prior to assessment of compound activity. *“Novel and Versatile Superfusion System. […]
# A cumulative dose response curve (DRC) to each test substance was then performed and changes in smooth muscle contraction measured. The effect of each test substance in each experiment was expressed as a percentage inhibition of the baseline contraction, normalized to the relevant vehicle controls. […] The data from all three experiments was pooled, the DRC plotted, and the test substance potency and efficacy determined.
# [4] = system: lambs with acute pulmonary hypertension; details: cited from earlier work; for effect on mean arterial pressure / pulmonary vasodilation / transpulmonary cGMP release / systemic arterial oxygenation: inhaled microparticles, awake lambs; for effect on mean arterial pressure / pulmonary vasodilation / transpulmonary cGMP release: U-46619 infusion
EC50 [1] [nM],Emax [1] [%],Emax at 1 µM [1] [%],Emax at 10 µM [1] [%],Emax at 30 µM [1] [%],SMILES,effect on mean arterial pressure [4],pulmonary vasodilation [4],transpulmonary cGMP release [4],further results
1000 to 5000,60 to 80,20 to 40,40 to 60,60 to 80,Nc1ccnc(-c2cc(-c3ccon3)n(Cc3ccsc3)n2)n1 [Compound I-1],,,,Enzyme Activity (increase at 30 μM with SNP) [2]: D (D = 10 or <20 fold increase)
5000 to 10000,60 to 80,0 to 10,40 to 60,40 to 60,Oc1nc(-c2cc(-c3ccon3)n(Cc3cccs3)n2)ncc1F [Compound I-4],,,,
500 to 1000,40 to 60,20 to 40,40 to 60,40 to 60,Oc1nc(-c2cc(-c3ccon3)n(Cc3ccsc3)n2)ncc1F [Compound I-2],,,,Enzyme Activity (increase at 30 μM with SNP) [2]: D (D = 10 or <20 fold increase)
,,,,,CC(C)[N+]1(C)[C@@H]2CC[C@H]1CC(OC(=O)C(CO)c1ccccc1)C2 (stereo partly shown) [Ipratropium bromide],,,,IC50 [3]: 0.86 nM
,,,,,"O=c1onc2cnc3ccccc3n12 [ODQ, 1H-[1,2,4]oxadiazolo[4,3-a]quinoxalin-1-one]",,,,pulmonary vasodilator effect of iNO ([4]; intravenous administration): markedly reduced
,,,,,Nc1nc(-c2nn(Cc3ccccc3F)c3ncccc23)nc(N)c1N1CCOCC1 [BAY 41-8543],without significant effect,dose dependent pulmonary vasodilation,increased transpulmonary cGMP release,magnitude and duration of pulmonary vasodilation induced by iNO ([4]; after inhaling microparticles): augmented; systemic arterial oxygenation [4]: increased systemic arterial oxygenation
,,,,,O=C(O)CCCCN(CCc1ccccc1OCc1ccc(CCc2ccccc2)cc1)Cc1ccc(C(=O)O)cc1 [BAY 58-2667],without significant effect,dose dependent pulmonary vasodilation,increased transpulmonary cGMP release,pulmonary vasodilation and transpulmonary cGMP release after treatment with ODQ ([4]; inhaled microparticles after intravenous ODQ): greatly enhanced; systemic arterial oxygenation [4]: increased systemic arterial oxygenation
10 to 100,40 to 60,40 to 60,40 to 60,60 to 80,Oc1nc(-c2cc(-c3ccon3)n(Cc3sccc3F)n2)ncc1F [Compound I-3],,,,
,,,,,Nc1nc(-c2nn(Cc3ccccc3F)c3ncccc23)ncc1C1CC1 [BAY 41-2272],without significant effect,dose dependent pulmonary vasodilation,increased transpulmonary cGMP release,
